The values that follow come from patent US7902254B1, “Method for treating conditions mediated by PPAR using macelignan” (Newtree Co., Ltd., priority 2005, dated 2011).

The target in one experiment is T1, human PPARα (Homo sapiens, UniProt Q07869).
T1 construct: expressed in transfected cells; host or cells: COS-7 monkey kidney cells (ATCC CRL-1651)
T1 sequence (Q07869 192-468 limits assumed): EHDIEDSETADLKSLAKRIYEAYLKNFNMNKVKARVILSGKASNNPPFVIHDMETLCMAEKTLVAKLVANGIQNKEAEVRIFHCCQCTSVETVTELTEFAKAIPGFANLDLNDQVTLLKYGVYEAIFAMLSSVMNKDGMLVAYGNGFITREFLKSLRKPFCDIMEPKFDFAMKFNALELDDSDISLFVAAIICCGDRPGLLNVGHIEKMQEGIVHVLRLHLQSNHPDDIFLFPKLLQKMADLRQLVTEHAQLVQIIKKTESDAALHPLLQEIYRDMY
Briefly: PPARα activation, PPRE-controlled luciferase reporter in transfected COS-7 cells. It counts as cell-based. The conditions noted are these: 25 μM, 24 hours, control 0.01% DMSO. The method, then: To investigate whether macelignan acts as a ligand of PPAR or not, it was tested according to known method (Cell, 68: 879-887, 1992; J. Biol. Chem., 272: 25252-25259, 1997) using a plasmid expressing PPAR and a vector having PPRE-controlled luciferase genes.
Activation of luciferase expression was measured by transfecting COS-7 monkey kidney cells (ATCC CRL-1651) with the PPARα plasmid and pFR-luciferase vector (Stratagene, USA), and then by treating the transfected cells with macelignan isolated from Example 1 for 24 hours. The PPARα plasmid was obtained by isolating polynucleotide encoding the amino acid sequence of amino acids […] (i.e. PPARα ligand-bound domain of the total amino acid sequence of human PPARα (Genbank Acession No. S74349)) with the primers of SEQ ID NO: 1 ([…]) and SEQ ID NO: 2 (TGGGGTACCTGGCTGAT) by RT-PCR. Then, the polynucleotide was cloned between the restriction enzyme sites of BamHI and KpnI of pFA vector (Stratagene, USA). Herein, mRNA used as the template in RT-PCR was obtained by separating the total RNA in cultured Hep G2 (ATCC HB-8065) human liver cells by using TRIZOL (Invitrogen, USA). RT-PCR was performed by synthesizing cDNA using reverse transcriptase at 42° C. for 60 minutes, and 30 cycles of 1 minute at 95° C., 30 seconds at 54° C. and 2 minutes at 72° C. using Taq polymerase. At this time, the test groups treated with different concentrations (1, 5, 10 and 25 μM) of macelignan according to the present invention were compared to the control treated with 0.01% DMSO, and to the groups treated with different concentrations (1, 5, 10 and 25 μM) of Wy-14643 (Sigma, USA), a compound known as a PPARα ligand.
Background: In a reporter assay the amount or activity of a reporter protein is the signal.

In experiment [1] the test system is obesity/diabetes mice (db/db mice). Briefly: Anti-diabetes effect in obesity/diabetes mouse model. It counts as in vivo. The conditions noted are these: 10 mg/kg oral; for OGTT blood sugar: 12th day. From the text: A mouse (db/db mouse; The Jackson Laboratory, USA) used in the present invention as an obesity/diabetes model is deficient in leptin genes and cannot control its appetite, and thus takes an excessive amount of food continuously. […] Thus, it can be a typical model of obesity and metabolic diseases. Additionally, it has a higher blood sugar level and can be a typical model of non-insulin-dependent diabetes mellitus. To investigate the effect of preventing and treating diabetes of macelignan, seven mice of 10 week-aged obesity/diabetes mice (db/db mice) were used per test group. To the test groups, macelignan suspended in 0.25% carboxymethyl cellulose was orally administered with the dose of 5 mg/kg (body weight), 10 mg/kg (body weight) and 25 mg/kg (body weight), once per day at a predetermined time, for 14 days. As a control, 0.25% carboxymethyl cellulose was orally administered alone to normal mice in the same dose as administered to the test group. As another control, 0.25% carboxymethyl cellulose was orally administered alone to obesity/diabetes mice in the same dose as administered to the test group. As still another control, 10 mg/kg (body weight) of troglitazone was orally administered. Blood sugar levels of the obesity/diabetes mice were determined from six days before the administration, once per three days. On the 12th day after the oral administration, the test group and the controls were subjected to the Oral Glucose Tolerance Test (OGTT). For this test, obesity/diabetes mice in the test group and the controls were fasted for at least 18 hours, glucose was orally administered to the mice in a dose of 3 g/kg (body weight), and then variations in the blood sugar were measured at 0 minutes, 30 minutes, 60 minutes and 120 minutes after the glucose administration. Additionally, on the 14th day of the oral administration, the final blood sugar level, insulin content in blood (mouse insulin ELISA Kit, Linco Research, o. EZRMI-BK, USA) and adiponectin content in blood (Adiponectin Quantikine ELISA Kit, R&D systems, No. MRP300, USA) were analyzed.

Experiment [2] shares this test system. Briefly: Effect upon hyperlipidemia and cardiovascular diseases in obesity/diabetes mouse model. It counts as in vivo. The conditions noted are these: 10 mg/kg oral, 14 days. The method, then: To investigate effects of macelignan upon the treatment of hyperlipidemia and cardiovascular diseases, seven mice of 10 week-aged obesity/diabetes mice (db/db mice) were used per test group. To the test groups, macelignan suspended in 0.25% carboxymethyl cellulose was orally administered in an administration dose of 5 mg/kg (body weight), 10 mg/kg (body weight) and 25 mg/kg (body weight), once per day at a predetermined time, for 14 days. As a control, 0.25% carboxymethyl cellulose was orally administered alone to normal mice in the same dose as administered to the test group. As another control, 0.25% carboxymethyl cellulose was orally administered alone to obesity/diabetes mice in the same dose as administered to the test group. As still another control, 10 mg/kg (body weight) of troglitazone was orally administered. Fourteen days after the administration, triglyceride concentration in blood (triglyceride measuring kit, Wako, Japan), free fatty acid concentration in blood (free fatty acid measuring kit, Wako, Japan), total cholesterol content in blood (ASAN T-CHO-Lq Reagents, Asan Pharmaceutical Co. Ltd., Korea), HDL-cholesterol content in blood (ASAN HDL-Cholesterol, Asan Pharmaceutical Co. Ltd., Korea), IL-6 content in blood (IL-6 Quantikine ELISA, R&D systems, USA) and TNF-α content in blood were measured for the test groups and the controls.

For the compound `Cc1cccc(Nc2cc(Cl)nc(SCC(=O)O)n2)c1C` [Wy-14643, reference compound], the “luciferase activity higher than the control (PPARα)” value at human PPARα is listed as “about 16 times”.
In turn, `Cc1c(C)c2c(c(C)c1O)CCC(C)(COc1ccc(CC3SC(=O)NC3=O)cc1)O2` (stereo not shown) [troglitazone, reference compound] yielded an OGTT blood sugar in experiment [1] (0 min. after glucose 3 g/kg) of 303.43 ± 37.83 mg/dL. Further, in experiment [1] (14th day, db/db mice), the “Adiponectin concentration in blood” value was 6682.33 ± 250.05 ng/mL and the “Insulin concentration in blood” value is 18.57 ± 5.88 ng/mL. The OGTT blood sugar in experiment [1] (30 mins. after glucose 3 g/kg) was 610.57 ± 76.21 mg/dL. Also, the OGTT blood sugar in experiment [1] (60 mins. after glucose 3 g/kg) was 523.70 ± 17.10 mg/dL. The same compound had an OGTT blood sugar in experiment [1] (120 mins. after glucose 3 g/kg) of 456.41 ± 54.69 mg/dL. In experiment [2], the “Free fatty acid in blood” value is on record as 1.22 ± 0.27 mEq/l, the HDL-cholesterol in blood worked out at 43.9 ± 6.34 mg/dL, the IL-6 in blood stood at 10.24 ± 3.60 pg/mL and the TNF-α in blood was 30.49 ± 13.18 pg/mL. In experiment [2], this compound had a Total cholesterol in blood of 134 ± 34.9 mg/dL and a Triglyceride in blood of 112.57 ± 57.47 mg/dL.
